Changes are numbered by the printed parent chain. Where two headings read alike, the source gives them in different places.
Experiments:
[1] = molecular target: T1, rat Y1 receptor (association with β-arrestin2) (Rattus norvegicus, UniProt P21555); assay type: cell-based
T1 sequence (P21555 2-382): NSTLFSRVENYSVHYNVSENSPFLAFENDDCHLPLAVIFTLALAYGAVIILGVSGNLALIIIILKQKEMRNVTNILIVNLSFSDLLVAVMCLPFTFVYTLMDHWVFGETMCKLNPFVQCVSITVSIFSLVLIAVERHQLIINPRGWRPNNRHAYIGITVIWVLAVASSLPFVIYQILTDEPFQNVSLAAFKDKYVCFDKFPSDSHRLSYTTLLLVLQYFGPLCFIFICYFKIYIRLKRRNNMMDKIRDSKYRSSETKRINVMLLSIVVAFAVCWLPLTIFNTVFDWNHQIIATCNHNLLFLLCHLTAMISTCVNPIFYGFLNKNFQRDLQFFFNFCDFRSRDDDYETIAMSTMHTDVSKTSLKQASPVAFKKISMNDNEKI

[2] = molecular target: T2, Y1 receptor (Rattus norvegicus, UniProt P21555); test: [125I]PYY competition binding, Y1/βarr2 membranes; details: inhibition of [125I]PYY specific binding
T2 sequence (P21555 2-382): T1 sequence (P21555 2-382)

[3] = tested on: Y1 receptor ΔY346; assay type: binding, rat
[4] = molecular target: T3, Y1 receptor STA (S352A, T353A) (Rattus norvegicus, UniProt P21555, S352A/T353A); test: [125I]PYY competition binding, Y1 STA/βarr2 membranes
T3 sequence (P21555 2-382 S352A/T353A): T1 sequence (P21555 2-382) with S351A, T352A

[5] = molecular target: T4, Y1 receptor T356A (Rattus norvegicus, UniProt P21555, T356A); test: [125I]PYY competition binding, Y1 T356A/βarr2 membranes
T4 sequence (P21555 2-382 T356A): T1 sequence (P21555 2-382) with T355A

[6] = molecular target: T5, Y1 receptor S359A (Rattus norvegicus, UniProt P21555, S359A); test: [125I]PYY competition binding, Y1 S359A/βarr2 membranes
T5 sequence (P21555 2-382 S359A): T1 sequence (P21555 2-382) with S358A

[7] = molecular target: T6, Y1 receptor TSA (T361A, S362A) (Rattus norvegicus, UniProt P21555, S362A/T361A); test: [125I]PYY competition binding, Y1 TSA/βarr2 membranes
T6 sequence (P21555 2-382 T361A/S362A): T1 sequence (P21555 2-382) with T360A, S361A

[8] = molecular target: T7, Y1 receptor STA, TSA (Rattus norvegicus, UniProt P21555, S352A/S362A/T353A/T361A); test: [125I]PYY competition binding, Y1 STA, TSA/βarr2 membranes
T7 sequence (P21555 2-382 S352A/T353A/T361A/S362A): T1 sequence (P21555 2-382) with S351A, T352A, T360A, S361A

[9] = molecular target: T8, Y1 receptor T356A, S359A, TSA (Rattus norvegicus, UniProt P21555, S359A/S362A/T356A/T361A); test: [125I]PYY competition binding, Y1 T356A, S359A, TSA/βarr2 membranes
T8 sequence (P21555 2-382 T356A/S359A/T361A/S362A): T1 sequence (P21555 2-382) with T355A, S358A, T360A, S361A

[10] = molecular target: T9, Y1 receptor 5A (Rattus norvegicus, UniProt P21555, S352A/S359A/S362A/T353A/T361A); test: [125I]PYY competition binding, Y1 5A/βarr2 membranes
T9 sequence (P21555 1-382 S352A/T353A/S359A/T361A/S362A): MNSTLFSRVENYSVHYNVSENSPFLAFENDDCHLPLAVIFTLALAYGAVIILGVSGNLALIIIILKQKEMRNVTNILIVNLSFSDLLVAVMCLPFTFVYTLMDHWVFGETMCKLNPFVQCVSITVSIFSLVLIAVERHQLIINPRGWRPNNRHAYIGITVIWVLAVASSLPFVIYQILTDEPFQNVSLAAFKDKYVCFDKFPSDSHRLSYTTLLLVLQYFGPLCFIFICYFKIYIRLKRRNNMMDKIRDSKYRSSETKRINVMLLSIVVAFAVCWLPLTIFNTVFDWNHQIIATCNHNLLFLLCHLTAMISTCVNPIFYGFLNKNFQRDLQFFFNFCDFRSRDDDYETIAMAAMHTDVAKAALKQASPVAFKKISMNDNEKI

[11] = molecular target: T10, Y1 receptor 6A (Rattus norvegicus, UniProt P21555, S352A/S359A/S362A/T353A/T356A/T361A); test: [125I]PYY competition binding, Y1 6A/βarr2 membranes
T10 sequence (P21555 1-382 S352A/T353A/T356A/S359A/T361A/S362A): T9 sequence (P21555 1-382 S352A/T353A/S359A/T361A/S362A) with T356A

[12] = molecular target: T11, Y2 receptor (Homo sapiens, UniProt P49146); assay type: binding
T11 sequence (P49146 1-381): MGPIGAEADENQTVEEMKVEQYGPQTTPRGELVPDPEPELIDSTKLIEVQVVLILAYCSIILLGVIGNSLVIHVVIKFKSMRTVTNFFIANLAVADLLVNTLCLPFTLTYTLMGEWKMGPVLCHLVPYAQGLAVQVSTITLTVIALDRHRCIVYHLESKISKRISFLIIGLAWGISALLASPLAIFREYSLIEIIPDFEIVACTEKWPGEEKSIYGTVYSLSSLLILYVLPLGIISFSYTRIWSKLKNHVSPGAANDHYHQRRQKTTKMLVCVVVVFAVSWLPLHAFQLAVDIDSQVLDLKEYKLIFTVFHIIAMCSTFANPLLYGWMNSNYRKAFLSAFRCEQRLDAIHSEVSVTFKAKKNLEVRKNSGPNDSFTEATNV

[13] = molecular target: T12, Y2 receptor H155P (Homo sapiens, UniProt P49146, H155P); assay type: binding
T12 sequence (P49146 1-381 H155P): T11 sequence (P49146 1-381) with H155P

[14] = molecular target: Y1 receptor (Y1–YFP) (Rattus norvegicus, UniProt P21555); assay type: cell-based
[15] = inhibition of [125I]PYY specific binding
[16] = 30 min pre-incubation, NPY 60 min
[17] = example triplicate experiment, Figure 6

Chain of Y1 receptor (Y1–YFP) (P21555 whole entry): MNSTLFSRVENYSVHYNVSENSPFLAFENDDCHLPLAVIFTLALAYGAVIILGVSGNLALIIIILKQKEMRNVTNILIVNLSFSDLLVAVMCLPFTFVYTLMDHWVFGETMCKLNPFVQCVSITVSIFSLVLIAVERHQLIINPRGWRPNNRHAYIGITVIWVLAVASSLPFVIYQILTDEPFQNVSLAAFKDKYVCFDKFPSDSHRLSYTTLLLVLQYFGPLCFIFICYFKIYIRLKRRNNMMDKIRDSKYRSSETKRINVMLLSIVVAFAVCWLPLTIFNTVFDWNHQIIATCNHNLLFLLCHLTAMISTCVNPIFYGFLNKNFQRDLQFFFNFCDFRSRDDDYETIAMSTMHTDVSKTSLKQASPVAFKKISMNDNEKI

## N=C(N)NCCC[C@@H](NC(=O)C(c1ccccc1)c1ccccc1)C(=O)NCc1ccc(O)cc1 [BIBP3226, (R)-N2-(diphenylacetyl)-N-[(4-hydroxyphenyl)methyl]-argininamide]
[1]
  Schild slope, example experiment: 1.1
  Schild slope, pooled: 1.1 ± 0.1
  effect of antagonist alone on Y1/βarr2 BiFC, % of 1 µM NPY response: −4.5 ± 10.0%

## Nc1nc2c(ncn2[C@@H]2O[C@H](COP(=O)(O)OP(=O)(O)OP(O)(O)=S)[C@@H](O)[C@H]2O)c(=O)[nH]1 [GTPγS, guanosine-5′-O-(3-thio)triphosphate]
[2]; 1 µM GTPγS
  GTPγS 1 µM inhibition (%), Y1: 58.6 ± 4.1%
[2]; 30 µg·mL−1 saponin
  GTPγS pIC50, Y1: 9.05 ± 0.21
[3]; 1 µM GTPγS
  GTPγS 1 µM inhibition (%), Y1 ΔY346: 61.9 ± 8.8%
[3]; [15]
  GTPγS pIC50, Y1 ΔY346: 8.57 ± 0.04
[4]; 1 µM GTPγS
  GTPγS 1 µM inhibition (%), Y1 STA: 61.4 ± 4.0%
[4]; [15]
  GTPγS pIC50, Y1 STA: 9.00 ± 0.15
[5]; 1 µM GTPγS
  GTPγS 1 µM inhibition (%), Y1 T356A: 48.3 ± 4.7%
[5]; [15]
  GTPγS pIC50, Y1 T356A: 8.97 ± 0.17
[6]; 1 µM GTPγS
  GTPγS 1 µM inhibition (%), Y1 S359A: 54.7 ± 3.5%
[6]; [15]
  GTPγS pIC50, Y1 S359A: 9.18 ± 0.08
[7]; 1 µM GTPγS
  GTPγS 1 µM inhibition (%), Y1 TSA: 51.4 ± 4.9%
[7]; [15]
  GTPγS pIC50, Y1 TSA: 9.40 ± 0.10
[8]; 1 µM GTPγS
  GTPγS 1 µM inhibition (%), Y1 STA, TSA: 58.2 ± 5.0%
[8]; [15]
  GTPγS pIC50, Y1 STA, TSA: 9.03 ± 0.26
[9]; 1 µM GTPγS
  GTPγS 1 µM inhibition (%), Y1 T356A, S359A, TSA: 53.0 ± 7.4%
[9]; [15]
  GTPγS pIC50, Y1 T356A, S359A, TSA: 9.21 ± 0.20
[10]; 1 µM GTPγS
  GTPγS 1 µM inhibition (%), Y1 5A: 55.7 ± 3.4%
[10]; [15]
  GTPγS pIC50, Y1 5A: 8.81 ± 0.28
[11]; 1 µM GTPγS
  GTPγS 1 µM inhibition (%), Y1 6A: 63.2 ± 1.2%
[11]; [15]
  GTPγS pIC50, Y1 6A: 9.04 ± 0.02
[12]; 1 µM GTPγS
  GTPγS 1 µM inhibition (%), Y2: 73.8 ± 3.5%
[12]; [15]
  GTPγS pIC50, Y2: 9.19 ± 0.11
[13]; 1 µM GTPγS
  GTPγS 1 µM inhibition (%), Y2 H155P: 70.2 ± 5.3%
[13]; [15]
  GTPγS pIC50, Y2 H155P: 9.17 ± 0.05

## homodimeric Ile-Glu-Pro-Dpr-Tyr-Arg-Leu-Arg-Tyr-CONH2 [GR231118]
[14]
  agonist activity in Y1–YFP endocytosis assay: inactive
[1]; [16]
  Schild slope, pooled: 1.5 ± 0.2
  pA2 (Schild plot), pooled: 8.6 ± 0.2
[1]; 1 h incubation
  agonist activity for stimulation of Y1/βarr2 BiFC: inactive
[1]; [17]
  Schild slope, example experiment: 1.9
  pA2 (Schild plot), example experiment: 8.3
